Six compounds from US6682732B1, “Treatment of lesions” (The University of Bath, priority 1998, dated 2004) can be followed below.

Data set [1] has as its system E.coli. Nature of the data set: Effect of xanthine oxidase derived species on cell viability at a range of oxygen concentrations (Test 6(b)). The settings on record: XO, NADH, NaNO2 system. Type of data set: cell-based, Escherichia coli. As for the experimental part:
To obtain cells used in this test, the infective bacterial strain Escherichia coli NCTC 86 (E.coli) was cultured on nutrient agar at 37° until colony formation occurred, usually overnight. This stock culture was used for subsequent experiments including sub-culturing in nutrient broth and plated onto agar weekly. Experimental cultures of E.coli were set up overnight in nutrient broth from single colonies on an agar plate. Cells were harvested and counted using a standard curve of known absorbance at 470 nm against viable cell count. Peroxynitrite was generated by the method of Crow et al BIOCHEM. 34 pages 3544 to 3552 (1995). In accordance with that method, a mixture of sodium nitrite and hydrogen peroxide was reacted under acid conditions then immediately quenched by the addition of sodium hydroxide. The concentration of ONOO^− formed was measured using an absorption coefficient of 1670 M^−1 cm^−1 in a spectrophotometer at a wavelength of 303 nm. […]
E.coli were cultured as described above. […] Desired oxygen concentrations were generated by delivery of a mixture of oxygen and nitrogen in appropriate proportions and determined using a Clark type O2 electrode. […] Viable cells formed colonies on the agar and were counted. Viable cell counts were performed in triplicate and the results expressed as a percentage viable count in each case related to a non enzyme control of the same oxygen concentration. […]

The subject of data set [2] is Staphylococcus aureus 6751. Kind of data set: Bacterial growth rate by optical density, 96 well plate (Tests 6(d), 6(e)). It is filed as cell-based. The protocol: (§1) Bacteria were seeded into nutrient broth (NB) and grown over night at 37° C. The culture was then counted and normalised to give a final cell concentration of 1.8×10^7 cells well^−1 into the wells of a 96 well plate in fresh nutrient broth. The optical density of each well was monitored every 15 minutes as a measure of the growth rate of each bacterial species. Growth curves were generated for each species and the maximal rate of growth (logarithmic phase) was measured. Cells were treated to a range of experimental conditions in which the growth rate of cells was related to a control of untreated cells. The results were expressed as a percentage of the growth rate of the control cells.
(§2) (i) At a fixed concentration of hypoxanthine (100 μM) a range of purified XO protein concentrations were added at time 0 minutes. The optical density was followed and the growth rate calculated.
(§3) (ii) The growth rate was also measured in relation to the concentration of hypoxanthine, using 30 μg of XO with cells seeded as described above.

The test system of data set [3] is S. enteritidis. Kind of data set: Effect of xanthine oxidase derived species on cell viability at a range of oxygen concentrations (Test 6(b)). Type of data set: cell-based. The following applies: XO, NADH, NaNO2 system. As for the experimental part: Aliquots were taken and incubated with a reaction system consisting of bovine Xanthine oxidase (XO) (53.2 μgml^−1), nicotinamide adenine dinucleotide in reduced form (NADH) (300 μM), sodium nitrite, (NaNO2) 1 mM and oxygen at a range of concentrations. […] This reaction was followed at 37° C. for 30 min with mixing before an aliquot was taken and plated onto agar and incubated in a warm room at 37° C. Viable cells formed colonies on the agar and were counted. Viable cell counts were performed in triplicate and the results expressed as a percentage viable count in each case related to a non enzyme control of the same oxygen concentration. […] The range of oxygen tensions used covers those in which XO has previously been considered to be active, namely superoxide generation (21% O2 saturation) and nitric oxide production (0% O2 saturation).

Data set [4] in a line: Nitric oxide release from pure bovine xanthine oxidase with NADH and nitrite under hypoxic conditions (ozone chemiluminescence, Tests 1-3). It is filed as biochemical. As for the experimental part:
The production of nitric oxide in the following tests and examples was analysed using an ozone chemiluminescence assay in a continuous flow apparatus (Sievers NOA 280) that allows the real time analysis of NO production. The apparatus was modified to allow a constant stream of nitrogen to flow into the reaction chamber. Chemiluminescence data were collected by a data acquisition system; the mean NO produced in parts per billion (ppb) was calculated from readings taken every second and shown as NO ppb/s. Progress curves, of molar production of NO against time, were calculated by taking into account the gas flow and successively integrating the ppb/s curves. […]
(d) Samples of NO were taken from the reaction cell by a needle that was connected to a Sievers Nitric Oxide Analyser (NOA-280 ) and the results were recorded for analysis using a computer.
(e) At time (t) 0 minutes, the NOA-280 started the measurement of NO from the reaction cell. At t=1 minute, the contents of the “substrates” bijou were injected into the reaction cell using a 1 ml syringe and the background NO was measured.
(f) At t=5 minutes, the contents of the “milk” bijou were injected into the reaction cell using a 1 ml syringe and the release of NO was monitored for a further 20 minutes. […]

Data set [5] relates to E. coli. Nature of the data set: Effect of peroxynitrite scavenger on bacterial growth, growth curves by absorbance (Test 6(c)). It is filed as cell-based. As for the experimental part: E. coli were seeded into nutrient broth at 2.10^7 cell ml^−1 and incubated at 37° C. under atmospheric air conditions (that is, 21% oxygen saturation). Four separate test samples of volume 1 ml were prepared by addition at 1 hour of incubation as follows:
1 Peroxynitrite at concentration 100 μM.
2 Peroxynitrite at 100 μM and quercetin (peroxynitrite scavenger) at 100 μμM.
3 Xanthine oxidase (53.2 μg) and xanthine at 100 μM.
4 Xanthine oxidase (53.2 μg) and NADH at 100 μM.
Corresponding controls were also prepared, and the growth curves generated over time determined by monitoring absorbance.

Data set [6] concerns Straphylococcu aureus. Nature of the data set: Incubation of Gram positive bacteria with SIN-1, growth. Type of data set: cell-based.
In data set [7] the test system is Lactobacillus casei 6375. Kind of data set: Bacterial growth rate by optical density, 96 well plate (Tests 6(d), 6(e)). Type of data set: cell-based. The settings on record: highest concentration. The protocol: as §1, §2, §3
The subject of data set [8] is Escherichia coli NCTC 86. Nature of the data set: Peroxynitrite effect on cell viability, colony count (Test 6(a)). Type of data set: cell-based. The following applies: E. coli; 100 μM to 0.01 μM; FIG. 1. As for the experimental part: To obtain cells used in this test, the infective bacterial strain Escherichia coli NCTC 86 (E.coli) was cultured on nutrient agar at 37° until colony formation occurred, usually overnight. This stock culture was used for subsequent experiments including sub-culturing in nutrient broth and plated onto agar weekly. Experimental cultures of E.coli were set up overnight in nutrient broth from single colonies on an agar plate. Cells were harvested and counted using a standard curve of known absorbance at 470 nm against viable cell count. Peroxynitrite was generated by the method of Crow et al BIOCHEM. 34 pages 3544 to 3552 (1995). In accordance with that method, a mixture of sodium nitrite and hydrogen peroxide was reacted under acid conditions then immediately quenched by the addition of sodium hydroxide. The concentration of ONOO^− formed was measured using an absorption coefficient of 1670 M^−1 cm^−1 in a spectrophotometer at a wavelength of 303 nm. Solutions of different concentrations for use in (a) below were obtained by dilution of the product solution using PBS.
Cells cultured as described above were diluted to suitable working concentrations (10^4-10^5 Cells Ml^−1) in sterile phosphate buffered saline (PBS). […] Viable cells formed colonies on the agar and were counted. […]

Data set [9] has as its system S. enteritidis. Described as above. It is filed as cell-based. As for the experimental part:
Cells cultured as described above were diluted to suitable working concentrations (10^4-10^5 Cells Ml^−1) in sterile phosphate buffered saline (PBS). ONOO^− at a range of concentrations from 100 μM to 0.01 μM was added as a bolus dose to cells and incubated at room temperature for ten minutes. Aliquots were taken from the cell cultures and plated on to nutrient agar and incubated in a warm room at 37° C. overnight. Viable cells formed colonies on the agar and were counted. The number of colonies formed was related to an untreated control and a graph of the results is shown in FIG. 1, which illustrates the effect of ONOO^− on cell viability.

As for “XOR: Bovine xanthine oxidase (XOR), Biozyme, Blaenavon, UK; 10.7 mg/ml, batch 104AX”, the entries for the “killing at oxygen concentrations of about 21%” value in data set [1] and in data set [3] were “about 5%” and “about 10%”, respectively. Moreover, the “growth inhibition by XO” value in [2] (hypoxanthine 100 μM, compared with Lactobacillus, FIG. 3) is recorded as “less marked growth inhibition”. In addition, the “optimum pH for the production of NO from XOR” value in data set [4] was approximately 5.5 pH.

Take `O=c1c(O)c(-c2ccc(O)c(O)c2)oc2cc(O)cc(O)c12` [quercetin]: in [5] (sample (2): peroxynitrite 100 μM and quercetin 100 μμM), the “effect of scavenger on peroxynitrite killing” value is reported as “clear effect in reducing killing”.

Consider `N=c1c[n+](N2CCOCC2)[n-]o1` [SIN-1, 3-morpholinosydnonimine], for which the “growth on incubation with SIN-1” value in [6] was “reduced growth in dependence on the amount of added SIN-1”.

On to `O=c1[nH]c(=O)c2c[nH]nc2[nH]1` [Oxypurinol], for which, in data set [7], the “effect on growth rate when added alone” value is given as “no effect on growth rate”.

Take `O=NOO` [Peroxynitrite]: the “effect on cell viability (viable count)” value in data set [8] is reported as “profound inhibitory effect”. The “killing (growth curves)” value in [5] (sample (1): peroxynitrite 100 μM added at 1 hour, 21% oxygen saturation) is recorded as “strong killing”. In addition, the effect on viability entry in [9] was “reduce viability”.

As to `OO` [H2O2, hydrogen peroxide], the “growth inhibition in the presence of H2O2” value in [2] (S. aureus, concentration ranges used) was “very limited”.
